Structures can show the parent of a compound that is named as a salt. Where two headings read alike, the source gives them in different places.
Molecular target: T1, human farnesyl transferase (Homo sapiens, UniProt P49354+P49356)
T1 construct: human farnesyl transferase purified from THP1 cell cultures; endogenous in cells; host or cells: THP1 cell cultures (enzyme purified from the cells)
Experiment: inhibition of farnesyl transferase ((3H) farnesyl transfer from (3H) FPP to p21 H-ras)
Format: biochemical
Procedure, shortened: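 Radiometric transfer of [3H]farnesyl from 4.5 pmol [3H]FPP to 200 pmol p21 H-ras by ~5 ng human enzyme purified from THP1 cells, in 50 mM Tris-HCl, 5 mM MgCl2, 5 mM DTT, 0.2% octyl glucoside, 20 min at 37 °C. Protein precipitated with SDS/TCA in methanol, filter-bound counts measured; IC50 from 9 concentrations, triplicate.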

[1] = human farnesyl transferase purified from THP1 cell cultures, p21 H-ras substrate, 20 minutes at 37° C., 9 concentrations, read-out: in vitro inhibitory activity IC50

SMILES	IC50 [1] [nM]	IC50 [nM]
COc1ccccc1CC(=O)N1C[C@H]2[C@@]3(c4ccccc4)CC[C@H](c4ccccc43)[C@@]2(NC=O)C1 (relative stereo) [Example 11, (3aRS, 4SR, 9SR, 9aRS)-3a-formylamino-4,9-ethano-2-(2-methoxyphenyl)acetyl-9-phenyl-2,3,3a,4,9,9a-hexahydro-1H-benzo[f]isoindole]	6950	–
COc1ccc(CSSCc2ccc(OC)c(CC(=O)N3CC4C5(c6ccccc6)CCC(c6ccccc65)C4(C(=O)O)C3)c2)cc1CC(=O)N1CC2C3(c4ccccc4)CCC(c4ccccc43)C2(C(=O)O)C1 (racemic) [Example 37, disulphide of (3aRS, 4SR, 9SR, 9aRS)-4,9-ethano-2-(2-methoxy-5-(mercaptomethyl)-phenyl)acetyl-9-phenyl-2,3,3a,4,9,9a-hexahydro-1H-benzo[f]isoindole-3a-carboxylic acid]	7400	–
COc1ccccc1CC(=O)N1C[C@H]2[C@@]3(c4ccccc4)CC[C@H](c4ccccc43)[C@@]2(C(=O)NC(Cc2c[nH]cn2)C(=O)O)C1 (stereo partly drawn) [Example 8, hydrochloride of N-[(3aRS, 4SR, 9SR, 9aRS)-4,9-ethano-2-(2-methoxyphenyl)acetyl-9-phenyl-2,3,3a,4,9,9a-hexahydro-1H-benzo[f]isoindolyl-3a-carbonyl]histidine]	190	–
COc1ccccc1CC(=O)N1C[C@H]2[C@@]3(c4ccccc4)CC[C@H](c4ccccc43)[C@@]2(C(=O)NC(CCC(=O)O)C(=O)O)C1 (stereo partly shown) [Example 7]	580	–
COc1ccccc1CC(=O)N1C[C@H]2[C@@]3(c4ccccc4)CC[C@H](c4ccccc43)[C@@]2(CCC(=O)O)C1 (relative stereo) [Example 25, 3-[(3aRS, 4SR, 9SR, 9aRS)-4,9-ethano-2-(2-methoxyphenyl)acetyl-9-phenyl-1,2,3,3a,9,9a-hexahydro-1H-benzo[f]isoindol-3a-yl]propionic acid]	2600	–
COc1ccccc1CC(=O)N1C[C@@H]2[C@]3(c4ccccc4)CC[C@@H](c4ccccc43)[C@]2(C(=O)NO)C1 (racemic) [Example 46, (3aRS,4SR,9SR,9aRS)-4,9-ethano-2-(2-methoxyphenylacetyl)-9-phenyl-2,3,3a,4,9,9a-hexahydro-1H-benzo[f]isoindole-3a-carbohydroxamic acid]	1250	–
COc1ccccc1CC(=O)N1C[C@H]2[C@@]3(c4ccccc4)CC[C@H](c4ccccc43)[C@@]2(NC(=O)CN)C1 (relative stereo) [Example 12, (3aRS, 4SR, 9SR, 9aRS)-3a-glycylamino-4,9-ethano-2-(2-methoxyphenyl)acetyl-9-phenyl-2,3,3a,4,9,9a-hexahydro-1H-benzo[f]isoindole]	7500	–
CNCCNC(=O)[C@]12CN(C(=O)Cc3ccccc3OC)C[C@H]1[C@@]1(c3ccccc3)CC[C@@H]2c2ccccc21 (relative stereo) [Example 5, (3aRS, 4SR, 9SR, 9aRS)-N-(2-methylaminoethyl)-4,9-ethano-2-(2-methoxyphenyl)acetyl-9-phenyl-2,3,3a,4,9,9a-hexahydro-1H-benzo[f]isoindole-3a-carboxamide]	7000	–
COc1ccc2c(c1)[C@]1(c3ccccc3)CC[C@H]2[C@@]2(C(=O)O)CN(C(=O)Cc3ccccc3OC)C[C@@H]12 (relative stereo) [Example 70, (3aRS,4SR,9SR,9aRS)-4,9-ethano-7-methoxy-2-(2-methoxy-phenyl)acetyl-9-phenyl-2,3,3a,4,9,9a-hexahydro-1H-benzo[f]isoindole-3a-carboxylic acid]	2850	–
C=C(C(=O)N1CC2C3(c4ccccc4)CCC(c4ccccc43)C2(C(=O)N[C@H](C)c2ccccc2)C1)c1ccccc1OC (single isomer, unassigned) [Example 9]	190	–
COc1ccccc1CCC(=O)N1C[C@@H]2[C@]3(c4ccccc4)CC[C@@H](c4ccccc43)[C@]2(C(=O)O)C1 (relative stereo) [Example 59, (3aRS,4SR,9SR,9aRS)-4,9-Ethano-2-(2-methoxyphenyl)propionyl-9-phenyl-2,3,3a,4,9,9a-hexahydro-1H-benzo[f]isoindole-3a-carboxylic acid]	–	5000
COc1ccccc1CC(=O)N1C[C@@H]2[C@]3(c4ccccc4)CC[C@@H](c4ccccc43)[C@]2(C(=O)NOCc2ccccc2)C1 (racemic) [Example 45, (3aRS,4SR,9SR,9aRS)-N-benzyloxy-4,9-ethano-2-(2-methoxyphenylacetyl)-9-phenyl-2,3,3a,4,9,9a-hexahydro-1H-benzo[f]isoindole-3a-carboxamide]	1270	–
CCOC(=O)[C@]12CN(C(=O)Cc3ccccc3OC)C[C@H]1[C@@]1(c3ccccc3)CC[C@@H]2c2ccccc21 (relative stereo) [Example 10, ethyl ester of (3aRS, 4SR, 9SR, 9aRS)-4,9-ethano-2-(2-methoxyphenyl)acetyl-9-phenyl-2,3,3a,4,9,9a-hexahydro-1H-benzo[f]isoindol-3a-carboxylic acid]	4350	–

Now from value to compound, other results behind:

IC50 [1] [nM]	SMILES	IC50 [nM]
330	C=C(C(=O)N1C[C@H]2[C@@]3(c4ccccc4)CC[C@H](c4ccccc43)[C@@]2(C(=O)NC2CCc3ccccc32)C1)c1ccccc1OC (stereo partly drawn) [Example 84, (3aS,4R,9R,9aS)-N-[(R,S)-1-indanyl]-4,9-ethano-2-[(2-methoxyphenyl)prop-2-en-1-oyl]-9-phenyl-2,3,3a,4,9,9a-hexahydro-1H-benzo[f]isoindole-3a-carboxamide]	–
690	C=C(C(=O)N1C[C@H]2[C@@]3(c4ccccc4)CC[C@H](c4ccccc43)[C@@]2(C(=O)N[C@H](C(=O)OC)c2ccccc2)C1)c1ccccc1OC [Example 72]	–
3650	O=C(Cc1cccc2c1OCCC2)N1C[C@H]2[C@@]3(c4ccccc4)CC[C@H](c4ccccc43)[C@@]2(C(=O)O)C1 (relative stereo) [Example 76, (3aRS,4SR,9SR,9aRS)-2-(8-chromanyl)acetyl-4,9-ethano-9-phenyl-2,3,3a,4,9,9a-hexahydro-1H-benzo[f]isoindole-3a-carboxylic acid]	–
360	C=C(C(=O)N1C[C@H]2[C@@]3(c4ccccc4)CC[C@H](c4ccccc43)[C@@]2(C(=O)NCc2cscn2)C1)c1ccccc1OC [Example 96, (3aS,4R,9R,9aS)-N-[(4-thiazolyl)-methyl]-4,9-ethano-2-[(2-methoxyphenyl)prop-2-en-1-oyl]-9-phenyl-2,3,3a,4,9,9a-hexahydro-1H-benzo[f]isoindole-3a-carboxamide]	–
430	C=C(C(=O)N1C[C@H]2[C@@]3(c4ccccc4)CC[C@H](c4ccccc43)[C@@]2(C(=O)NCc2ccco2)C1)c1ccccc1OC [Example 94, (3aS,4R,9R,9aS)-N-[(2-furyl)-methyl]-4,9-ethano-2-[(2-methoxyphenyl)prop-2-en-1-oyl]-9-phenyl-2,3,3a,4,9,9a-hexahydro-1H-benzo[f]isoindole-3a-carboxamide]	–
3150	C=Cc1ccc2c(c1)[C@]1(c3ccccc3)CC[C@H]2[C@@]2(C(=O)O)CN(C(=O)Cc3ccccc3OC)C[C@@H]12 (relative stereo) [Example 73, (3aRS,4SR,9SR,9aRS)-4,9-ethano-2-(2-methoxyphenyl)acetyl-9-phenyl-7-vinyl-2,3,3a,4,9,9a-hexahydro-1H-benzo[f]isoindole-3a-carboxylic acid]	–

— US5936097A, “4,9-ethano-benzo(F)isoindole derivatives as farnesyl transferase inhibitors” (Rhone-Poulenc Rorer, S.A., priority 1995, dated 1999)
